# Assay results from US3954985A, “Method for inhibiting bacterial growth with certain selected 3-chloro-tetrahydro-1,3-oxazines or oxazolidines” (INTERx Research Corporation, priority 1975, dated 1976).
# Values joined by “and” are separate entries in the source; they are usually repeats but may differ in a detail not shown here. Equal entries are not always repeated. Structures can show the parent of a compound that is named as a salt.
# Experiments:
# [1] = system: Staph. epidermidis ATCC 12228; test: Bactericidal endpoint (time for complete sterilization), ATCC 12228; format: cell-based
# From the text: (§1) The procedure employed to determine the antibacterial activity of 3-chloro-2,2,4,4-tetramethyl-tetrahydro1,3-oxazolidine and 3-chloro-2,2-[spiro-1'-methyl-4'-piperidinyl]-4,4-dimethyl-1,3-oxazolidinewas based primarily on a modification of the serial dilution method of analysis. However, instead of determining the minimum inhibitory concentration parameters for the compound investigated, applicants alternatively chose to determine the bactericidal endpoint for a given concentration of the compound investigated. Consequently, applicants' studies were established to determine the time required for complete sterilization of the micro-organism tested, when exposed to a given concentration of the compound investigated.
# (§2) A stock solution of each compound identified above was prepared using an appropriate buffered solution.
# (§3) For screening in the absence of a denaturing agent (e.g., horse serum) an equal volume of distilled water and the resulting solution was subjected to the screen.
# (§4) For screening in the presence of a denaturing agent, a volume of the stock solution was diluted using an equal volume of 10% horse serum. When necessary, the final solution was adjusted to the desired pH using 1N HCl and the solution was permitted to stand at room temperature for thirty minutes prior to the screening procedure.
# (§5) To 5 ml of the stock solution being evaluated, there was added 0.2 ml of an overnight broth culture containing the particular micro-organism being investigated (see above). At time intervals of 0.5, 1, 2, 3, 4, 5, . . . minutes, a loop of this suspension was subcultured into 5 ml of a sterile nutrient broth. All the samples were then incubated at 37°C for seven days with daily observation for evidence of bacterial growth. The time interval reported is for that sample in which no bacterial growth was observed after the incubation period.
# E. coli ATCC 10536 = test: Bactericidal endpoint (time for complete sterilization), ATCC 10536; format: cell-based
# From the text: as §1, §2, §3, §4, §5
# [2] = system: Kleb. pneumoniae ATCC 10031; test: Bactericidal endpoint (time for complete sterilization), ATCC 10031; format: cell-based
# From the text: as §1, §2, §3, §4, §5
# [3] = system: Pseud. aeruginosa ATCC 9027; test: Bactericidal endpoint (time for complete sterilization), ATCC 9027; format: cell-based; conditions: for Antibacterial activity, time, 9027: 0.5 M NaH2PO4 pH 7.0
# From the text: as §1, §2, §3, §4, §5
# Staph. aureus ATCC 6538 = test: Bactericidal endpoint (time for complete sterilization), ATCC 6538; format: cell-based
# From the text: as §1, §2, §3, §4, §5
# [4] = system: Bord. bronchiseptica ATCC 4617; test: Bactericidal endpoint (time for complete sterilization), ATCC 4617; format: cell-based
# From the text: as §1, §2, §3, §4, §5
# 6501 = test: Bactericidal endpoint (time for complete sterilization), 6501; format: cell-based
# From the text: as §1, §2, §3, §4, §5
# [5] = Stability in the neat state at 40°C (positive chlorine by thiosulfate titration); format: physicochemical; conditions: HYDROCHLORIDE
# From the text: ^a Weight of sample analyzed.
# ^b Volume of 10^^-2 N sodium thiosulfate required to titrate
# the sample at time (T).
# ^c Percentage of positive chlorine in the sample analyzed.
# [6] = Stability analysis in buffered solution (half-life); format: physicochemical
# [7] = 0.1 M NaOAc pH 4.6, H2O, 6.52 × 10^-3 M (1428 ppm)
# [8] = 0.1 M NaOAc pH 4.6, Serum, 5.69 × 10^-3 M (1246 ppm)
# [9] = 0.5 M NaH2PO4 pH 7.0, H2O, 20.75 × 10^-3 M (4525 ppm)
# [10] = 0.5 M NaH2PO4 pH 7.0, Serum, 19.88 × 10^-3 M (4334 ppm)
# [11] = 0.5 M NaOAc pH 4.6, H2O, 21.00 × 10^-3 M (4578 ppm)
# [12] = 0.5 M NaOAc pH 4.6, Serum, 20.50 × 10^-3 M (4469 ppm)
# [13] = 0.1M Na2B4O7 pH 8.8, H2O, 8.13 × 10^-3 M (1333 ppm)
# [14] = 0.1M Na2B4O7 pH 8.8, Serum, 8.13 × 10^-3 M (1333 ppm)
# [15] = 0.1M NaH2PO4 pH 7.00, H2O, 8.92 × 10^-3 M (1463 ppm)
# [16] = 0.1M NaH2PO4 pH 7.00, Serum, 8.92 × 10^-3 M (1463 ppm)
# [17] = 0.1M NaOAc pH 4.6, H2O, 8.26 × 10^-3 M (1355 ppm)
# [18] = 0.1M NaOAc pH 4.6, Serum, 8.26 × 10^-3 M (1355 ppm)
structure (smiles),measurement,setting,value
"CN1CCC2(CC1)OCC(C)(C)N2Cl [3-chloro-2,2-[spiro-1'-methyl-4'-piperidinyl]-4,4-dimethyl-1,3-oxazolidine]","Antibacterial activity, time, 12228",[1]; [7],1 min
same,"Antibacterial activity, time, 12228",[1]; [8],> 10 min
same,"Antibacterial activity, time, 12228",[1]; [9],1 min
same,"Antibacterial activity, time, 12228",[1]; [10],5 min
same,"Antibacterial activity, time, 12228",[1]; [11],0.5 min
same,"Antibacterial activity, time, 12228",[1]; [12],2 min
same,"Antibacterial activity, time, 10536",E. coli ATCC 10536; [7],0.5 min
same,"Antibacterial activity, time, 10536",E. coli ATCC 10536; [8],2 min
same,"Antibacterial activity, time, 10536",E. coli ATCC 10536; [9],0.5 min
same,"Antibacterial activity, time, 10536",E. coli ATCC 10536; [10],7 min
same,"Antibacterial activity, time, 10536",E. coli ATCC 10536; [11],0.5 min
same,"Antibacterial activity, time, 10536",E. coli ATCC 10536; [12],0.5 min
same,"Antibacterial activity, time, 10031",[2]; [7],0.5 min
same,"Antibacterial activity, time, 10031",[2]; [8],7 min
same,"Antibacterial activity, time, 10031",[2]; [9],1 min
same,"Antibacterial activity, time, 10031",[2]; [10],8 min
same,"Antibacterial activity, time, 10031",[2]; [11],0.5 min
same,"Antibacterial activity, time, 10031",[2]; [12],0.5 min
same,"Antibacterial activity, time, 9025",[3]; [7],0.5 min
same,"Antibacterial activity, time, 9025",[3]; [8],> 10 min
same,"Antibacterial activity, time, 9027","[3]; H2O, 20.75 × 10^-3 M (4525 ppm)",1 min
same,"Antibacterial activity, time, 9027","[3]; Serum, 19.88 × 10^-3 M (4334 ppm)",10 min
same,"Antibacterial activity, time, 9025",[3]; [11],0.5 min
same,"Antibacterial activity, time, 9025",[3]; [12],1 min
same,"Antibacterial activity, time, 6538",Staph. aureus ATCC 6538; [7],5 min
same,"Antibacterial activity, time, 6538",Staph. aureus ATCC 6538; [8],> 10 min
same,"Antibacterial activity, time, 6538",Staph. aureus ATCC 6538; [9],1 min
same,"Antibacterial activity, time, 6538",Staph. aureus ATCC 6538; [10],> 10 min
same,"Antibacterial activity, time, 6538",Staph. aureus ATCC 6538; [11],0.5 min
same,"Antibacterial activity, time, 6538",Staph. aureus ATCC 6538; [12],3 min
same,"Antibacterial activity, time, 4617",[4]; [9],0.5 min
same,"Antibacterial activity, time, 4617",[4]; [10],5 min
same,"Antibacterial activity, time, 4617",[4]; [11],0.5 min
same,"Antibacterial activity, time, 4617",[4]; [12],1 min
same,"Antibacterial activity, time, 6501",6501; [7],0.5 min
same,"Antibacterial activity, time, 6501",6501; [8],3 min
same,"Antibacterial activity, time, 6501",6501; [9],1 min
same,"Antibacterial activity, time, 6501",6501; [10],7 min
same,"Antibacterial activity, time, 6501",6501; [11],0.5 min
same,"Antibacterial activity, time, 6501",6501; [12],0.5 min
"CN1CCC2(CC1)OCC(C)(C)N2Cl [3-CHLORO-2,2-[SPIRO-1'-METHYL-4'-PIPERIDINIUM]4,4-DIMETHYL-1,3-OXAZOLIDINE HYDROCHLORIDE]",%Cl (percentage of positive chlorine in the sample analyzed),[5]; 0 days,13.7% and 13.1%
same,%Cl (percentage of positive chlorine in the sample analyzed),[5]; 1 day,12.3% and 12.5%
same,%Cl (percentage of positive chlorine in the sample analyzed),[5]; 2 days,12.3% and 11.9%
same,%Cl (percentage of positive chlorine in the sample analyzed),[5]; 3 days,12.5% and 12.2%
same,%Cl (percentage of positive chlorine in the sample analyzed),[5]; 4 days,12.1% and 12.3%
same,%Cl (percentage of positive chlorine in the sample analyzed),[5]; 5 days,12.3% and 12.4%
same,%Cl (percentage of positive chlorine in the sample analyzed),[5]; 7 days,12.2% and 12.1%
same,%Cl (percentage of positive chlorine in the sample analyzed),[5]; 10 days,11.9% and 11.8%
same,%Cl (percentage of positive chlorine in the sample analyzed),[5]; 14 days,12.1% and 11.8%
same,%Cl (percentage of positive chlorine in the sample analyzed),[5]; 21 days,12.0% and 12.1%
same,%Cl (percentage of positive chlorine in the sample analyzed),[5]; 28 days,11.5% and 11.6%
same,%Cl (percentage of positive chlorine in the sample analyzed),[5]; 35 days,11.8% and 11.6%
same,%Cl (percentage of positive chlorine in the sample analyzed),[5]; 51 days,9.5%
"CC1(C)COC(C)(C)N1Cl [3-chloro-2,2,4,4-tetramethyl-tetrahydro-1,3-oxazolidine]","Germicidal activity time, 12228",[1]; [13],> 5 min
same,"Germicidal activity time, 12228",[1]; [14],> 10 min
same,"Germicidal activity time, 12228",[1]; [15],1 min
same,"Germicidal activity time, 12228",[1]; [16],6 min
same,"Germicidal activity time, 12228",[1]; [17],0.5 min
same,"Germicidal activity time, 12228",[1]; [18],> 10 min
same,"Germicidal activity time, 10536",E. coli ATCC 10536; [13],2 min
same,"Germicidal activity time, 10536",E. coli ATCC 10536; [14],4 min
same,"Germicidal activity time, 10536",E. coli ATCC 10536; [15],0.5 min
same,"Germicidal activity time, 10536",E. coli ATCC 10536; [16],3 min
same,"Germicidal activity time, 10536",E. coli ATCC 10536; [17],0.5 min
same,"Germicidal activity time, 10536",E. coli ATCC 10536; [18],3 min
same,"Germicidal activity time, 10031",[2]; [13],4 min
same,"Germicidal activity time, 10031",[2]; [14],9 min
same,"Germicidal activity time, 10031",[2]; [15],0.5 min
same,"Germicidal activity time, 10031",[2]; [16],5 min
same,"Germicidal activity time, 10031",[2]; [17],0.5 min
same,"Germicidal activity time, 10031",[2]; [18],> 10 min
same,"Germicidal activity time, 9027",[3]; [13],2 min
same,"Germicidal activity time, 9027",[3]; [14],4 min
same,"Germicidal activity time, 9027",[3]; [15],1 min
same,"Germicidal activity time, 9027",[3]; [16],7 min
same,"Germicidal activity time, 9027",[3]; [17],0.5 min
same,"Germicidal activity time, 9027",[3]; [18],4 min
same,"Germicidal activity time, 6538",Staph. aureus ATCC 6538; [13],> 5 min
same,"Germicidal activity time, 6538",Staph. aureus ATCC 6538; [14],> 10 min
same,"Germicidal activity time, 6538",Staph. aureus ATCC 6538; [15],3 min
same,"Germicidal activity time, 6538",Staph. aureus ATCC 6538; [16],> 10 min
same,"Germicidal activity time, 6538",Staph. aureus ATCC 6538; [17],0.5 min
same,"Germicidal activity time, 6538",Staph. aureus ATCC 6538; [18],> 10 min
same,"Germicidal activity time, 4617",[4]; [13],3 min
same,"Germicidal activity time, 4617",[4]; [14],8 min
same,"Germicidal activity time, 4617",[4]; [15],1 min
same,"Germicidal activity time, 4617",[4]; [16],> 10 min
same,"Germicidal activity time, 4617",[4]; [17],0.5 min
same,"Germicidal activity time, 4617",[4]; [18],6 min
same,half-life at 1520 µM,"[6]; 0.1 M Na2B4O7 pH 9.3, 40 °C, initial concentration 1.52 × 10^-3 M",~5 h
same,half-life at 2490 µM,"[6]; 0.1 M Na2B4O7 pH 9.3, 40 °C, initial concentration 2.49 × 10^-3 M",~4.6 h
same,half-life at 5980 µM,"[6]; 0.1 M Na2B4O7 pH 9.3, 40 °C, initial concentration 5.98 × 10^-3 M",~3.3 h
same,half-life at 1680 µM,"[6]; 0.1 M NaH2PO4 pH 7.0, 40 °C, initial concentration 1.68 × 10^-3 M",~70 h
same,half-life at 3050 µM,"[6]; 0.1 M NaH2PO4 pH 7.0, 40 °C, initial concentration 3.05 × 10^-3 M",~54 h
same,half-life at 6700 µM,"[6]; 0.1 M NaH2PO4 pH 7.0, 40 °C, initial concentration 6.70 × 10^-3 M",~54 h
same,half-life at 1880 µM,"[6]; 0.1 M NaOAc pH 4.6, 40 °C, initial concentration 1.88 × 10^-3 M",2.2 h
same,half-life at 2590 µM,"[6]; 0.1 M NaOAc pH 4.6, 40 °C, initial concentration 2.59 × 10^-3 M",2.2 h
same,half-life at 5470 µM,"[6]; 0.1 M NaOAc pH 4.6, 40 °C, initial concentration 5.47 × 10^-3 M",2.6 h
same,half-life at 6230 µM,"[6]; H2O, initial concentration 6.23 × 10^-3 M",~58 h
